Results taken from PubChem BioAssay (NCI).
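Compound exposure: 48 hours, 5 concentrations, 96-well plates. The concentration for 50% growth inhibition is given as GI50. Definition used: TGI = concentration required for complete inhibition of growth.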

Legend:
Experiment in all cases: NCI tumour cell line growth inhibition, 48 h
SK-MEL-2 melanoma = test system: SK-MEL-2 melanoma
SK-OV-3 ovarian = test system: SK-OV-3 ovarian
IGROV1 ovarian = test system: IGROV1 ovarian
K-562 leukemia = test system: K-562 leukemia
HCC-2998 colon = test system: HCC-2998 colon
HOP-62 NSCLC = test system: HOP-62 NSCLC
SK-MEL-28 melanoma = test system: SK-MEL-28 melanoma
RXF 393 renal = test system: RXF 393 renal
SW-620 colon = test system: SW-620 colon
SNB-19 CNS = test system: SNB-19 CNS
OVCAR-5 ovarian = test system: OVCAR-5 ovarian
UACC-257 melanoma = test system: UACC-257 melanoma
U251 CNS = test system: U251 CNS
NCI-H226 lung = test system: NCI-H226 lung
EKVX NSCLC = test system: EKVX NSCLC
SK-MEL-5 melanoma = test system: SK-MEL-5 melanoma
A549 NSCLC = test system: A549 NSCLC
HT29 colon = test system: HT29 colon
BT-549 breast = test system: BT-549 breast
RPMI-8226 leukemia = test system: RPMI-8226 leukemia
NCI-H23 lung = test system: NCI-H23 lung
NCI-H460 lung = test system: NCI-H460 lung
SF-268 CNS = test system: SF-268 CNS
COLO 205 colon = test system: COLO 205 colon
KM12 colon = test system: KM12 colon
NCI-H522 lung = test system: NCI-H522 lung
OVCAR-3 ovarian = test system: OVCAR-3 ovarian
NCI/ADR-RES ovarian = test system: NCI/ADR-RES ovarian
MDA-MB-435 = test system: MDA-MB-435
SF-539 CNS = test system: SF-539 CNS
CCRF-CEM leukemia = test system: CCRF-CEM leukemia
PC-3 prostate = test system: PC-3 prostate
ACHN renal = test system: ACHN renal
SN12C renal = test system: SN12C renal
MCF7 breast = test system: MCF7 breast
SF-295 CNS = test system: SF-295 CNS
OVCAR-8 ovarian = test system: OVCAR-8 ovarian
LOX IMVI melanoma = test system: LOX IMVI melanoma
M14 melanoma = test system: M14 melanoma
HOP-92 NSCLC = test system: HOP-92 NSCLC
A498 renal = test system: A498 renal
HCT-116 colon = test system: HCT-116 colon
OVCAR-4 ovarian = test system: OVCAR-4 ovarian
786-0 renal = test system: 786-0 renal
MALME-3M melanoma = test system: MALME-3M melanoma
HS 578T breast = test system: HS 578T breast
UACC-62 melanoma = test system: UACC-62 melanoma
UO-31 renal = test system: UO-31 renal
MDA-MB-231 breast = test system: MDA-MB-231 breast
TK-10 renal = test system: TK-10 renal
HCT-15 colon = test system: HCT-15 colon
MOLT-4 leukemia = test system: MOLT-4 leukemia
DU-145 prostate = test system: DU-145 prostate
SNB-75 CNS = test system: SNB-75 CNS
HL-60(TB) leukemia = test system: HL-60(TB) leukemia
CAKI-1 renal = test system: CAKI-1 renal

## COc1ccc(/C(C)=C(\c2ccc(Cl)cc2)c2ccc(OCCN3CCCCC3)cc2)cc1
SK-MEL-2 melanoma
  GI50: 5.85 µM
  TGI: 10.7 µM
SK-OV-3 ovarian
  GI50: 6.25 µM
  TGI: 12.3 µM
IGROV1 ovarian
  GI50: 4.93 µM
  TGI: 11.2 µM
K-562 leukemia
  GI50: 1.28 µM
  TGI: 10.4 µM
HCC-2998 colon
  GI50: 3.84 µM
  TGI: 8.1 µM
HOP-62 NSCLC
  GI50: 4.83 µM
  TGI: 9.96 µM
SK-MEL-28 melanoma
  GI50: 3.99 µM
  TGI: 8.4 µM
RXF 393 renal
  GI50: 2.5 µM
  TGI: 7.29 µM
SW-620 colon
  GI50: 3.34 µM
  TGI: 8.09 µM
SNB-19 CNS
  GI50: 5.32 µM
  TGI: 12.6 µM
OVCAR-5 ovarian
  GI50: 4.16 µM
  TGI: 9.55 µM
UACC-257 melanoma
  GI50: 5.73 µM
  TGI: 10.8 µM
U251 CNS
  GI50: 4.13 µM
  TGI: 8.77 µM
NCI-H226 lung
  GI50: 4.85 µM
  TGI: 9.7 µM
EKVX NSCLC
  GI50: 2.66 µM
  TGI: 8.79 µM
SK-MEL-5 melanoma
  GI50: 1.57 µM
  TGI: 5.44 µM
A549 NSCLC
  GI50: 4.51 µM
  TGI: 10.2 µM
HT29 colon
  GI50: 0.984 µM
  TGI: 3.87 µM
BT-549 breast
  GI50: 3.19 µM
  TGI: 7.55 µM
RPMI-8226 leukemia
  GI50: 1.44 µM
  TGI: 6.64 µM
NCI-H23 lung
  GI50: 4.34 µM
  TGI: 10.2 µM
NCI-H460 lung
  GI50: 4.15 µM
  TGI: 9.34 µM
SF-268 CNS
  GI50: 7.75 µM
  TGI: 26.8 µM
COLO 205 colon
  GI50: 2.25 µM
  TGI: 7.05 µM
KM12 colon
  GI50: 2.72 µM
  TGI: 16 µM
NCI-H522 lung
  GI50: 4.12 µM
  TGI: 8.66 µM
OVCAR-3 ovarian
  GI50: 5.26 µM
  TGI: 11 µM
NCI/ADR-RES ovarian
  GI50: 4.79 µM
  TGI: 9.86 µM
MDA-MB-435
  GI50: 3.93 µM
  TGI: 8.56 µM
SF-539 CNS
  GI50: 3.54 µM
  TGI: 7.68 µM
CCRF-CEM leukemia
  GI50: 3.05 µM
  TGI: 14.4 µM
PC-3 prostate
  GI50: 1.81 µM
  TGI: 6.59 µM
ACHN renal
  GI50: 5.13 µM
  TGI: 9.61 µM
SN12C renal
  GI50: 4.68 µM
  TGI: 9.53 µM
MCF7 breast
  GI50: 0.604 µM
  TGI: 5.71 µM
SF-295 CNS
  GI50: 2.97 µM
  TGI: 7.54 µM
OVCAR-8 ovarian
  GI50: 5.64 µM
  TGI: 11.8 µM
LOX IMVI melanoma
  GI50: 1.89 µM
  TGI: 6.2 µM
M14 melanoma
  GI50: 0.861 µM
  TGI: 2.36 µM
HOP-92 NSCLC
  GI50: 3.45 µM
  TGI: 7.55 µM
A498 renal
  GI50: 4.73 µM
  TGI: 10.4 µM
HCT-116 colon
  GI50: 1.46 µM
  TGI: 5.24 µM
OVCAR-4 ovarian
  GI50: 3.76 µM
  TGI: 9.51 µM
786-0 renal
  GI50: 0.746 µM
  TGI: 1.9 µM
MALME-3M melanoma
  GI50: 4.01 µM
  TGI: 8.49 µM
HS 578T breast
  GI50: 5.16 µM
  TGI: 13.3 µM
UACC-62 melanoma
  GI50: 2.12 µM
  TGI: 6.45 µM
UO-31 renal
  GI50: 3.46 µM
  TGI: 7.4 µM
MDA-MB-231 breast
  GI50: 4.58 µM
  TGI: 9.22 µM
TK-10 renal
  GI50: 5.66 µM
  TGI: 13.8 µM
HCT-15 colon
  GI50: 1.16 µM
  TGI: 4.56 µM
MOLT-4 leukemia
  GI50: 4.1 µM
  TGI: 19.5 µM
DU-145 prostate
  GI50: 8.29 µM
  TGI: 26.6 µM
SNB-75 CNS
  GI50: 4.11 µM
  TGI: 10.6 µM
HL-60(TB) leukemia
  GI50: 3.94 µM
  TGI: 12.6 µM
CAKI-1 renal
  GI50: 5.23 µM
  TGI: 12.4 µM
